# US6673782B2, “Treatment of systemic lupus erythematosis” (Wisconsin Alumni Research Foundation, priority 1999, dated 2004)
# “Also recorded” adds a separate entry of the source.
# What was measured:
# MRL/MPJ mice [1] = test: SLE disease severity (physical symptom) scores in MRL mice on 0.87% calcium diet; assay type: in vivo; set-up: key to Mean scores of disease severity: 0.5 = small sores … 3 = swollen nodes front legs, neck and back legs; conditions: for Mean scores of disease severity: 0.87% Ca, score 0.5-3
# Method: MRL mice are the model for the human disease lupus. See Brians, et al., J. Exp. Med. 148:1198-1215, 1978 and P. L. Cohen and R. A. Eisenburg, Annu. Rev. Immunol. 9:243-69, 1991.
# (§1) When the MRL mice in this study were 4 weeks old, they were started on one of three experimental diets. All mice were fed the experimental diet which contains 0.87% Ca. Control mice are fed the experimental diet with no 1,25(OH)2D3; one group of 7 mice were fed the experimental diet with 50 ng/mouse/day of 1,25(OH)2D3; and another group of 8 mice were fed the experimental diet with 200 ng/mouse/day of 1,25(OH)2D3. The mice were checked weekly for physical symptoms. In control-fed MRL mice, SLE disease symptoms spontaneously develop after 5 weeks. Symptoms were given numbers from 0.5 to 3, with 0.5 being small sores; 1, swollen lymph nodes under front legs; 2, swollen lymph nodes under front legs and on neck; 3, swollen lymph nodes under front legs, neck and back legs (severity scores for table).
# (§2) The diet was then replaced with the same diet providing a dose level of 100 ng/mouse/day.
# (§3) The first physical symptoms of lupus began to develop in two female control-fed mice at 14 weeks of age. […] At 17 weeks of age the control mice started to die. Their proteinuria levels were elevated above 300 mg/dl. […] FIG. 1 compares the percentage of mice with elevated proteinuria with the age of the mouse. FIG. 2 compares the severity of the SLE with symptoms the age of the mice.
# MRL/MPJ mice [2] = test: Proteinuria in MRL mice on 0.87% calcium diet; assay type: in vivo; conditions: for % of Mice with Proteinuria at 100 mg/dL and Greater: 0.87% Ca
# Method: as §1
# Proteinuria levels were checked weekly started at 16 weeks of age.
# as §3
# [3] = Serum calcium, hypercalcemia and death in MRL mice on 0.87% calcium diet; assay type: in vivo; conditions: for Serum calcium: 0.87% Ca diet (controls 8 mg %Ca)
# Method: as §1, §2, §3
# Serum calcium values were measured and found to be at 8 mg %Ca for the controls, and 12 mg %Ca for both the 50 ng and 100 ng treated groups. The 1,25(OH)2D3 treatment diet was removed at 17 weeks of age, and all mice were fed the 0.87% calcium control diet for the remainder of the experiment.
# MRL/MPJ-Fas<lpr>mice [4] = test: Mean symptom scores of lupus in MRL/MPJ-Fas mice on 0.02% calcium diet; assay type: in vivo; conditions: for Mean symptom scores on 0.02% Ca: 0.02% Ca diet + 100 ng/mouse/day, score 0.5-3
# Method: (§4) MRL/MPJ-Fasmice were raised on a chow diet. At 5-6 weeks of age 13 mice were switched to a purified diet containing 0.02% calcium and 14 mice were put on a diet containing 0.02% calcium with 100 ng of 1,25(OH)2D3 per/mouse/day. The mice were checked weekly for physical symptoms of lupus. The symptoms were given numerical scores starting at 0.5=small sore on skin; 1=swollen lymph nodes under front legs; 2=swollen lymph nodes under front legs and neck; 3=swollen lymph nodes under front legs, neck, and back legs (severity scores used in figure on the next page).
# (§5) FIG. 3A and B and Tables 3 and 4 disclose data points obtained in this study. At 12 weeks of age the 0.02% Ca+100 ng of 1,25(OH)2D3 group began to show SLE symptoms. It was not until 14 weeks of age that the control (0.02% Ca) mice had the same percentage severity as the mice dosed with 1,25(OH)2D3. Between 18 and 20 weeks of age, about 21.4% of the 0.02% Ca+100 ng 1,25(OH)2D3 mice died. However, none of the controls had reached motality. The experiment was ended at 20 weeks of age.
# MRL/MPJ-Fas<lpr>mice [5] = test: Proteinuria in MRL/MPJ-Fas mice on 0.02% calcium diet; assay type: in vivo; conditions: 0.02% Ca diet + 100 ng/mouse/day
# MRL/MPJ-Fas<lpr>mice [6] = test: Mortality of MRL/MPJ-Fas mice on 0.02% calcium diet; assay type: in vivo; conditions: 0.02% Ca + 100 ng/mouse/day; between 18 and 20 weeks of age (no control deaths)
# Method: as §4, §5
# MRL/I mice = conditions: Lemire et al., Autoimmunity 1992; cited from earlier work
compound,measurement,setting,value
"C=C1/C(=C\C=C2/CCC[C@]3(C)[C@@H]([C@H](C)CCCC(C)(C)O)CC[C@@H]23)C[C@@H](O)C[C@@H]1O [1,25(OH)2D3, 1α,25-dihydroxyvitamin D3]",Mean scores of disease severity,"MRL/MPJ mice [1]; 50 ng/mouse/day until 17 weeks, age 18 weeks",0.21
same,Mean scores of disease severity,"MRL/MPJ mice [1]; 50 ng/mouse/day until 17 weeks, age 19 weeks",0.12
same,Mean scores of disease severity,"MRL/MPJ mice [1]; 50 ng/mouse/day until 17 weeks, age 20 weeks",0.33
same,Mean scores of disease severity,"MRL/MPJ mice [1]; 50 ng/mouse/day until 17 weeks, age 21 weeks",0.11
same,Mean scores of disease severity,"MRL/MPJ mice [1]; 50 ng/mouse/day until 17 weeks, age 22 weeks",0.11
same,Mean scores of disease severity,"MRL/MPJ mice [1]; 50 ng/mouse/day until 17 weeks, age 23 weeks",0.11
same,Mean scores of disease severity,"MRL/MPJ mice [1]; 50 ng/mouse/day until 17 weeks, age 24 weeks",0.11
same,Mean scores of disease severity,"MRL/MPJ mice [1]; 50 ng/mouse/day, age 0-13 weeks",0.00
same,Mean scores of disease severity,"MRL/MPJ mice [1]; 50 ng/mouse/day, age 14 weeks",0.00
same,Mean scores of disease severity,"MRL/MPJ mice [1]; 50 ng/mouse/day, age 15 weeks",0.00
same,Mean scores of disease severity,"MRL/MPJ mice [1]; 50 ng/mouse/day, age 16 weeks",0.21
same,Mean scores of disease severity,"MRL/MPJ mice [1]; 50 ng/mouse/day, age 17 weeks",0.21
same,Mean scores of disease severity,"MRL/MPJ mice [1]; 200 ng then 100 ng/mouse/day until 17 weeks, age 18 weeks",0.07
same,Mean scores of disease severity,"MRL/MPJ mice [1]; 200 ng then 100 ng/mouse/day until 17 weeks, age 19 weeks",0.08
same,Mean scores of disease severity,"MRL/MPJ mice [1]; 200 ng then 100 ng/mouse/day until 17 weeks, age 20 weeks",0.00
same,Mean scores of disease severity,"MRL/MPJ mice [1]; 200 ng then 100 ng/mouse/day until 17 weeks, age 21 weeks",0.00
same,Mean scores of disease severity,"MRL/MPJ mice [1]; 200 ng then 100 ng/mouse/day until 17 weeks, age 22 weeks",0.00
same,Mean scores of disease severity,"MRL/MPJ mice [1]; 200 ng then 100 ng/mouse/day until 17 weeks, age 23 weeks",0.00
same,Mean scores of disease severity,"MRL/MPJ mice [1]; 200 ng then 100 ng/mouse/day until 17 weeks, age 24 weeks",0.00
same,Mean scores of disease severity,"MRL/MPJ mice [1]; 200 ng then 100 ng/mouse/day, age 14 weeks",0.00
same,Mean scores of disease severity,"MRL/MPJ mice [1]; 200 ng then 100 ng/mouse/day, age 15 weeks",0.00
same,Mean scores of disease severity,"MRL/MPJ mice [1]; 200 ng then 100 ng/mouse/day, age 16 weeks",0.00
same,Mean scores of disease severity,"MRL/MPJ mice [1]; 200 ng then 100 ng/mouse/day, age 17 weeks",0.00
same,Mean scores of disease severity,"MRL/MPJ mice [1]; 200 ng then (from 10 weeks) 100 ng/mouse/day, age 0-13 weeks",0.00
same,Effect on SLE symptoms,MRL/MPJ mice [1]; mice on a 0.87% calcium diet,prevented or slowed SLE symptoms
same,Disease severity scores versus controls,"MRL/MPJ mice [1]; treated mice, 0.87% Ca diet",much less for the treated mice than for controls
same,Physical symptoms of lupus,"MRL/MPJ mice [1]; treated mice, 0.87% Ca diet, at 14 weeks of age (two control mice symptomatic)","None of the 1,25(OH)2D3-treated mice showed symptoms"
same,% of Mice with Proteinuria at 100 mg/dL and Greater,"MRL/MPJ mice [2]; 50 ng/mouse/day in diet, treatment removed at 17 weeks, age 18 weeks",0%
same,% of Mice with Proteinuria at 100 mg/dL and Greater,"MRL/MPJ mice [2]; 50 ng/mouse/day in diet, treatment removed at 17 weeks, age 19-25 weeks",0%
same,% of Mice with Proteinuria at 100 mg/dL and Greater,"MRL/MPJ mice [2]; 50 ng/mouse/day in diet, age 0-15 weeks",0%
same,% of Mice with Proteinuria at 100 mg/dL and Greater,"MRL/MPJ mice [2]; 50 ng/mouse/day in diet, age 16-17 weeks",0%
same,% of Mice with Proteinuria at 100 mg/dL and Greater,"MRL/MPJ mice [2]; 200 ng then 100 ng/mouse/day in diet, treatment removed at 17 weeks, age 18 weeks",0%
same,% of Mice with Proteinuria at 100 mg/dL and Greater,"MRL/MPJ mice [2]; 200 ng then 100 ng/mouse/day in diet, treatment removed at 17 weeks, age 19-25 weeks",0%
same,% of Mice with Proteinuria at 100 mg/dL and Greater,"MRL/MPJ mice [2]; 200 ng then 100 ng/mouse/day in diet, age 16-17 weeks",0%
same,% of Mice with Proteinuria at 100 mg/dL and Greater,"MRL/MPJ mice [2]; 200 ng then (from 10 weeks) 100 ng/mouse/day in diet, age 0-15 weeks",0%
same,Development of proteinuria of 100 mg/dL or greater,"MRL/MPJ mice [2]; all treated mice, 0.87% Ca diet, whole experiment","none of the 1,25(OH)2D3 treated mice developed proteinuria of 100 mg/dL or greater"
same,Serum calcium,[3]; 50 ng treated group,12 mg %Ca
same,Serum calcium,[3]; 100 ng treated group,12 mg %Ca
same,Symptoms of hypercalcemia,"[3]; 200 ng/mouse/day, 0.87% Ca diet, at 10 weeks of age",began to show symptoms of hypercalcemia
same,Death of treated animals,"[3]; 0.87% Ca diet, at 17 weeks of age",began to die of what we believe to be hypercalcemia
same,Age at which group began to show SLE symptoms,MRL/MPJ-Fas<lpr>mice [4]; 0.02% Ca + 100 ng/mouse/day,12 weeks of age
same,Mean symptom scores on 0.02% Ca,MRL/MPJ-Fas<lpr>mice [4]; age 10 weeks,0
same,Mean symptom scores on 0.02% Ca,MRL/MPJ-Fas<lpr>mice [4]; age 11 weeks,0.214 ± 0.410
same,Mean symptom scores on 0.02% Ca,MRL/MPJ-Fas<lpr>mice [4]; age 12 weeks,1.642 ± 0.410
same,Mean symptom scores on 0.02% Ca,MRL/MPJ-Fas<lpr>mice [4]; age 13 weeks,2.14 ± 0.515
same,Mean symptom scores on 0.02% Ca,MRL/MPJ-Fas<lpr>mice [4]; age 14 weeks,2.714 ± 0.45
same,Mean symptom scores on 0.02% Ca,MRL/MPJ-Fas<lpr>mice [4]; age 15 weeks,2.785 ± 0.41
same,Mean symptom scores on 0.02% Ca,MRL/MPJ-Fas<lpr>mice [4]; age 16 weeks,2.85 ± 0.349
same,Mean symptom scores on 0.02% Ca,MRL/MPJ-Fas<lpr>mice [4]; age 17 weeks,2.85 ± 0.349
same,Mean symptom scores on 0.02% Ca,MRL/MPJ-Fas<lpr>mice [4]; age 18 weeks,2.80 ± 0.46
same,Mean symptom scores on 0.02% Ca,MRL/MPJ-Fas<lpr>mice [4]; age 19 weeks,2.77 ± 0.49
same,Mean symptom scores on 0.02% Ca,MRL/MPJ-Fas<lpr>mice [4]; age 20 weeks,2.95 ± 0.33
same,Disease progression,MRL/MPJ-Fas<lpr>mice [4]; low calcium diet and treatment,disease progression occurring more quickly
same,Effect on SLE symptoms,MRL/MPJ-Fas<lpr>mice [4]; mice on a 0.02% (low) calcium diet,not effective; also recorded: did not inhibit these symptoms
same,% Proteinurea scores above 100 mg/dl on 0.02% Ca,MRL/MPJ-Fas<lpr>mice [5]; age 10 weeks,0%
same,% Proteinurea scores above 100 mg/dl on 0.02% Ca,MRL/MPJ-Fas<lpr>mice [5]; age 11 weeks,0%
same,% Proteinurea scores above 100 mg/dl on 0.02% Ca,MRL/MPJ-Fas<lpr>mice [5]; age 12 weeks,7.14%
same,% Proteinurea scores above 100 mg/dl on 0.02% Ca,MRL/MPJ-Fas<lpr>mice [5]; age 13 weeks,14.28%
same,% Proteinurea scores above 100 mg/dl on 0.02% Ca,MRL/MPJ-Fas<lpr>mice [5]; age 14 weeks,14.28%
same,% Proteinurea scores above 100 mg/dl on 0.02% Ca,MRL/MPJ-Fas<lpr>mice [5]; age 15 weeks,35.7%
same,% Proteinurea scores above 100 mg/dl on 0.02% Ca,MRL/MPJ-Fas<lpr>mice [5]; age 16 weeks,28.57%
same,% Proteinurea scores above 100 mg/dl on 0.02% Ca,MRL/MPJ-Fas<lpr>mice [5]; age 17 weeks,28.57%
same,% Proteinurea scores above 100 mg/dl on 0.02% Ca,MRL/MPJ-Fas<lpr>mice [5]; age 18 weeks,42.85%
same,% Proteinurea scores above 100 mg/dl on 0.02% Ca,MRL/MPJ-Fas<lpr>mice [5]; age 19 weeks,28.57%
same,% Proteinurea scores above 100 mg/dl on 0.02% Ca,MRL/MPJ-Fas<lpr>mice [5]; age 20 weeks,28.57%
same,Mice died,MRL/MPJ-Fas<lpr>mice [6],about 21.4%
same,Effect on symptoms of experimental murine lupus,MRL/I mice,"attenuation by 1,25-dihydroxyvitamin D3 of some symptoms"
